Assay results from patent US20180344702A1, “METHODS FOR TREATING PATIENTS WITH HEMATOLOGIC MALIGNANCIES” (Aptose Biosciences, Inc., priority 2017, published 2018).

Assays:
[1] = tested on: human cells (e.g., FLTs-ITD-mutated leukemia cells MV4-11); test: Mouse xenograft model, tumor volume; type: in vivo, mice; settings: several doses over a 22-day period, vs control or Ibrutinib
Procedure: Animal Study: Balb/c mice were injected (SQ) with human cells (e.g., FLTs-ITD-mutated leukemia cells MV4-11), and treated orally (q.d.) with the indicated doses of Compound 7 for 14 days. The effect (e.g., anti-leukemia) was assessed by measuring tumor burden. Oral toxicity was evaluated, for example, by measuring body weight. Compound 7 concentrations in plasma were measured at the indicated time points after dosing at the first day.

NOMO-1 cells = test: Cell-cycle dysregulation (flow cytometry); type: cell-based; settings: dose-dependent
Procedure: (§1) Cell-cycle analysis: Cells were treated with vehicle, DMSO or Compound 7 and were stained with PI and EdU, and then analyzed by flow cytometry to determine the phases of cell cycle.

[2] = tested on: isogenic BA/F3 cells with FLT3 mutations; test: Cell-cycle dysregulation (flow cytometry); type: cell-based; settings: dose-dependent
Procedure: as §1

Cc1cnc(-c2ccc(-c3ccc(NC(=O)Nc4c(F)cc(F)cc4F)cc3F)c3c2C(=O)NC3)[nH]1 [Compound 7, 1-{3-fluoro-4-[7-(5-methyl-1H-imidazol-2-yl)-1-oxo-2,3-dihydro-1H-isoindol-4-yl]-phenyl}-3-(2,4,6-trifluorophenyl)urea]
Tumor volume [1]: reduces tumor volume with increased dose
Cell-cycle dysregulation (NOMO-1 cells): induce cell-cycle dysregulation
Cell-cycle dysregulation [2]: induce cell-cycle dysregulation
